In US20220057378A1, “MICROBIAL MICROFLUIDIC BIOSENSOR” (priority 2015, published 2022):
Where two headings read alike, the source gives them in different places.

Assays:
[1] = test system: E. coli MG1655 strains Co2-Co4 and Co6-Co8; experiment: plate reader validation of cobalt-sensing promoters (GFP fluorescence); type: cell-based; conditions: microplate wells, various concentrations of cobalt
[2] = test system: E. coli MG1655; type: cell-based; conditions: for Number DE Genes: false discovery rate below 1%
Source text: RNA-Seq results for promoter activation in E. coli MG1655 in response to single and multiple toxin exposures at low and high concentrations: Our analysis of the sequencing data from RNA-Seq experiments to determine candidate genes that are induced upon toxin exposure consisted of three main tasks: sequence alignment, quantification of gene expression, and identification of differentially expressed genes. Sequence alignment: Reads were aligned to the reference E. coli K-12 substr. MG1655 genome using a tolerance of at most two mismatches per alignment to protect against sequencing errors. The alignment was performed using Bowtie software, 5 which is known to be very efficient in aligning reads to a reference genome. Without being limiting, Bowtie software 5 can be used for the alignment. Those skilled in the art will appreciate that there are many such software programs for performing alignments.
Quantification of gene expression: The expression level of each gene was determined as a function of the number of aligned reads mapping to the gene. […] Additionally, we implemented our own algorithms for sequence alignment and quantification of gene expression in order to crosscheck all results.
Identification of differentially expressed genes: Finally, a set of statistical and information theory algorithms were applied in order to extract not only differentially expressed (DE) genes for each toxin with respect to the control samples (pure water) but also toxin-specific genes. DESeq is a standard tool for identifying DE genes that allowed us to select sensitive genes with differential expression between the control samples (pure water) and the cells exposed to toxin. It assumes that the number of counts for each gene across experimental replicates follows a negative binomial distribution (8, 9). We considered genes with a False Discovery Rate (FDR) lower than 1% as DE in order to ensure statistically robust DE genes. […] Additionally, genes with the largest number of counts and expression levels are preferable in order to maximize the signal-to-noise ratio. When it is not possible to find toxin-specific genes, the next generation of good candidates is formed by those genes satisfying the above properties for a small subset of toxins (multiple-toxin response). It is desirable to have single-toxin-specific genes for several of the toxins in the combination in order to determine toxin-specific multi-gene-responses by means of logical operations. […] Therefore, we have developed information theoretic measures to improve the toxin separability. The core idea of the approach is that low entropies (or highly informative genes) correspond to toxin-specific genes, while large entropies (low information) are associated with scenarios in which DE fold-changes across different toxins are similar and should be discarded.
(§1) Milestone 2.1: Expose target cells to toxins of interest over four orders of magnitude of concentration and extract RNA: Three strains of bacteria were exposed to relevant levels of all toxins and extracted RNA. The toxin exposure protocol involves first growing a culture of bacterial cells to mid-log phase (OD≤0.2). […] Finally, cellular RNA was stabilized using Qiagen RNA Protect reagent, the cells were centrifuged, and the pellet was frozen at −80° C. To investigate the cellular RNA response to toxin insult, we exposed E. coli MG1655, E. coli LABEC01, and B. subtilis 168 cells to the toxins and concentrations shown in Table 7 and extracted RNA.
Milestone 2.5: Prepare isolated RNA for Illumina sequencing using vendor provided reagents and carry out sequencing: We have prepared libraries and carried out sequencing for all toxins of interest.

[3] = test system: Cd1; experiment: microplate specificity test with on- and off-target heavy metals (fluorescence); type: cell-based, E. coli; conditions: on-target = 1, no-toxin control = 0; As 1.3, Cd 0.44, Cr(VI) 2, Cu 20, Pb 1, Hg 0.1, Co 20, Fe 500, Ni 1.7, Zn 7.6 μM
Source text: (§2) Each column represents the fluorescence response of a strain to the on-target metal (normalized to “1”) and all off-target metals, where “0” represents the unchanged response for the no-toxin control.
(§3) Although the ability to sense cobalt, iron, nickel, and zinc is of secondary importance, these heavy metals were included as potential off-target inducers because they may be present in the natural water supply under test. […] This combinatorial logic was implemented in algorithms.

[4] = test system: Cu1; experiment: as above; type: cell-based, E. coli; conditions: on-target = 1, no-toxin control = 0; As 1.3, Cd 0.44, Cr(VI) 2, Cu 20, Pb 1, Hg 0.1, Co 20, Fe 500, Ni 1.7, Zn 7.6 μM
Source text: as §2, §3

[5] = test system: Pb2; experiment: as above; type: cell-based, E. coli; conditions: on-target = 1, no-toxin control = 0; As 1.3, Cd 0.44, Cr(VI) 2, Cu 20, Pb 1, Hg 0.1, Co 20, Fe 500, Ni 1.7, Zn 7.6 μM
Source text: as §2, §3

[6] = test system: Cr5; experiment: as above; type: cell-based, E. coli; conditions: on-target = 1, no-toxin control = 0, As 1.3, Cd 0.44, Cr(VI) 2, Cu 20, Pb 1, Hg 0.1, Co 20, Fe 500, Ni 1.7, Zn 7.6 μM
Source text: as §2, §3

[7] = test system: As3; experiment: as above; type: cell-based, E. coli; conditions: on-target = 1, no-toxin control = 0; As 1.3, Cd 0.44, Cr(VI) 2, Cu 20, Pb 1, Hg 0.1, Co 20, Fe 500, Ni 1.7, Zn 7.6 μM
Source text: as §2, §3

[8] = test system: E. coli MG1655/Pb7; experiment: 18-strain chip induction; type: cell-based
Source text: (§4) In an embodiment herein, the toxin response data across 18 unique sensing strains were also collected using a new chip design that houses 16 E. coli strains and 2 B. subtilis strains. The B. subtilis NCIB 3610/Amm3 construct is a “lights-off” sensor, meaning that GFP production drops when ammonium is introduced, following a slight increase due to faster growth on this preferred nitrogen source. […] By combining these sensor responses, we can identify cobalt by the unique response of Pb7 alone and lead by the unique combination of Zn6, Pb7, and Pb8 responses.

[9] = test system: Hg3; experiment: microplate specificity test with on- and off-target heavy metals (fluorescence); type: cell-based, E. coli; conditions: on-target = 1, no-toxin control = 0, As 1.3, Cd 0.44, Cr(VI) 2, Cu 20, Pb 1, Hg 0.1, Co 20, Fe 500, Ni 1.7, Zn 7.6 μM
Source text: as §2, §3

[10] = test system: GFP sensor strains; experiment: SVM classification of GFP sensor responses (toxin / no toxin); type: cell-based; conditions: from classification accuracy and ROC curves
Source text: Computational models to determine the threshold of detection for specific sensors based on models of experimental GFP responses. We used machine learning techniques to determine the relationships between the GFP output signal and the presence of a toxin. We have created a database containing the collected sensor response data. We have quantified the GFP threshold of detection for each sensor construct. We have constructed Receiver Operating Characteristic (ROC) curves for each sensor to achieve robust sensing. We constructed machine learning models capable of inferring the relationships between the GFP sensor responses and the presence or absence of a toxin at a given concentration. The algorithm learns these relationships from a set of training samples (GFP sensor responses) defined by the set of experimental conditions from which they were generated. The aim of the algorithm is to provide a general method capable of determining the experimental conditions associated with GFP sensor responses through the use of historical data. Specifically, we have built classification models based on Support Vector Machines (SVMs), which is one of the most popular classifiers due to its excellent performance in many contexts and its solid mathematical basis (1). For each toxin and concentration, we solved a binary classification problem in which the positive class represents the presence of the toxin in water and the negative class is associated with clean environments. Patterns were constructed with features containing GFP sensor responses at various timestamps to capture the temporal dynamics of the GFP signal. The optimal meta-parameters of the SVM classifier were determined by applying a 5-crossvalidation during the training phase (2). In order to have a reliable estimate of the performance of the model when deployed in real environments, we measured its performance over a set of samples (test patterns) not seen during the training phase. The SVM's performance was determined by the percentage of test samples correctly labeled as toxin/no toxin (classification accuracy). 80% of samples were used for training the SVM models and the remaining 20% of samples was used to evaluate their effectiveness. We generated 20 random training/test partitions to have an estimate of performance independent of the data partition.
Specifically, we have built classification models based on Support Vector Machines (SVMs), which is one of the most popular classifiers due to its excellent performance in many contexts and its solid mathematical basis. For each toxin and concentration, we solved a binary classification problem in which the positive class represents the presence of the toxin in water and the negative class is associated with clean environments. Patterns were constructed with features containing GFP sensor responses at various timestamps to capture the temporal dynamics of the GFP signal. The optimal meta-parameters of the SVM classifier were determined by applying a 5-crossvalidation during the training phase.
In order to have a reliable estimate of the performance of the model when deployed in real environments, we measured its performance over a set of samples (test patterns) not seen during the training phase. The SVM's performance was determined by the percentage of test samples correctly labeled as toxin/no toxin (classification accuracy). 80% of samples were used for training the SVM models and the remaining 20% of samples was used to evaluate their effectiveness. We generated 20 random training/test partitions based on data collected in single-strain chips (no crosstalk data) to have an estimate of performance.

[11] = test system: Mall construct; experiment: malathion construct loaded into the sensor device; type: cell-based, E. coli; conditions: prototype sensor
[12] = test system: cellular esterases; experiment: inhibition of cellular esterase activity (CFDA cleavage) in gill chip; type: cell-based, S. cerevisiae; conditions: 0.725 g/l malathion; two sequential exposures; recovers subsequently
Description: Additional constructs based on this promoter were generated while collecting on-chip response data for all other sensing strains using the sensor prototypes was performed. […] S. cerevisiae was loaded into a gill chip and CFDA (carboxyfluorescein diacetate) was added to the growth medium. […] Because CFDA breaks down in the medium over time thereby increasing the background signal, fresh medium+CFDA was introduced at 1,500 and 2,000 min. This explains the drift in baseline GFP during this period, which can be eliminated in subsequent experiments by mixing dye and medium on-chip.

[13] = test system: B. subtilis 168; experiment: RNA-Seq after toxin exposure; type: cell-based
Description: as §1
We used RNA-Seq to verify the nasB promoter in B. subtilis 168 as a sensitive and specific promoter for the last remaining toxin, ammonium (see FIG. 2). […] This is desirable because, unlike the other water toxins of interest, ammonium is expected to increase the growth rate of biosensor cells. In this situation, a “lights-on” sensor could be triggered by any substance that increases the growth rate and resulting GFP production ability of cells, whereas a “lights-off” sensor remains immune to this effect.

[14] = test system: B. subtilis NCIB 3610/Amm3; experiment: 18-strain chip induction; type: cell-based; conditions: 5 ppm NH4-N, GFP production drops
Source text: as §4

| Compound | Number DE Genes ([2]; high concentration) | Number DE Genes ([2]; low concentration) | fluorescence response of strain Cd1 (on-target cadmium) [3] | fluorescence response of strain Cu1 (on-target copper) [4] | fluorescence response of strain Pb2 (on-target lead) [5] | fluorescence response of strain Cr5 (on-target chromium(VI)) [6] | fluorescence response of strain As3 (on-target arsenic) [7] | fluorescence response of strain Hg3 (on-target mercury) [9] | threshold of detection [10] | also measured |
| --- | --- | --- | --- | --- | --- | --- | --- | --- | --- | --- |
| [Co] [Cobalt] | 1274 | 609 | 0.67 | −0.01 | 0.80 | −0.11 | 0.30 | – | – | GFP response to cobalt in the growth medium [1]: significantly respond; response of the dadA promoter ([2]; RNA-Seq mean fold change): specific to cobalt alone; response of the hmp promoter ([2]; RNA-Seq mean fold change): specific to cobalt alone; response of the ilvB promoter ([2]; RNA-Seq mean fold change): specific to cobalt alone; response of the lipA promoter ([2]; RNA-Seq mean fold change): specific to cobalt alone; response of the mmuP promoter ([2]; RNA-Seq mean fold change): specific to cobalt alone; response of the soxR promoter ([2]; RNA-Seq mean fold change): specific to cobalt alone; response of the tehA promoter ([2]; RNA-Seq mean fold change): specific to cobalt alone; response of the ygbA promoter ([2]; RNA-Seq mean fold change): specific to cobalt alone; response of the yjbJ promoter ([2]; RNA-Seq mean fold change): specific to cobalt alone; response of the yqfA promoter ([2]; RNA-Seq mean fold change): specific to cobalt alone; GFP response of strain Pb7 [8]: responds sensitively |
| [Fe] [Iron] | 70 | 32 | −0.31 | 0.17 | 0.96 | 0.86 | −0.06 | −0.38 | – | fluorescence response of strain Cr5 (on-target chromium(VI)) ([6]; listed as iron): sensitive |
| CCOC(=O)CC(SP(=S)(OC)OC)C(=O)OCC (stereo not shown) [Malathion, malathion] | 41 | 370 | – | – | – | – | – | – | 72.5 mg/L | response of the nemR promoter ([2]; RNA-Seq mean fold change): responds to high concentrations; response of Mall construct in sensor device [11]: did not produce a discernable response; cell fluorescence (CFDA cleavage by cellular esterases) [12]: significantly drops |
| [Ni] [Nickel] | 95 | 43 | −0.08 | −0.05 | 0.16 | −0.35 | −0.08 | – | – | – |
| [Zn] [Zinc] | 596 | 24 | −0.09 | −0.08 | 1.06 | 0.35 | −0.14 | 0.78 | – | response of the mntH promoter ([2]; RNA-Seq mean fold change): high concentrations of zinc alone; response of the shiA promoter ([2]; RNA-Seq mean fold change): high concentrations of zinc alone; response of the yjjZ promoter ([2]; RNA-Seq mean fold change): responds monotonically to increasing concentrations; response of the zntA promoter ([2]; RNA-Seq mean fold change): shows sensitivity to low and high concentrations; response of the zraP promoter ([2]; RNA-Seq mean fold change): responds specifically and monotonically to increasing concentrations; fluorescence response of strain Hg3 (on-target mercury) ([9]; listed as zinc): sensitive |
| Ammonium | – | – | – | – | – | – | – | – | one | response of the nasB promoter [13]: sensitive and specifically downregulated; GFP response of Amm3 strain (lights-off sensor) [14]: respond sensitively |
